In patent US7910751B2, “Heterocyclidene acetamide derivative” (Mochida Pharmaceutical Co., Ltd., priority 2005, dated 2011):

Molecular target: T1, human TRPV1 (Homo sapiens, UniProt Q8NER1)
T1 construct: expressed in transfected cells; host or cells: CHO-K1
Assay: Measurement of capsaicin-induced Ca influx in human TRPV1 transformed CHO cell line using FDSS-6000
Format: cell-based
Conditions: concentration at which the capsaicin concentration-reaction curve is shifted two times to the right, human TRPV1 transformed CHO cells

T1 sequence (Q8NER1 whole entry): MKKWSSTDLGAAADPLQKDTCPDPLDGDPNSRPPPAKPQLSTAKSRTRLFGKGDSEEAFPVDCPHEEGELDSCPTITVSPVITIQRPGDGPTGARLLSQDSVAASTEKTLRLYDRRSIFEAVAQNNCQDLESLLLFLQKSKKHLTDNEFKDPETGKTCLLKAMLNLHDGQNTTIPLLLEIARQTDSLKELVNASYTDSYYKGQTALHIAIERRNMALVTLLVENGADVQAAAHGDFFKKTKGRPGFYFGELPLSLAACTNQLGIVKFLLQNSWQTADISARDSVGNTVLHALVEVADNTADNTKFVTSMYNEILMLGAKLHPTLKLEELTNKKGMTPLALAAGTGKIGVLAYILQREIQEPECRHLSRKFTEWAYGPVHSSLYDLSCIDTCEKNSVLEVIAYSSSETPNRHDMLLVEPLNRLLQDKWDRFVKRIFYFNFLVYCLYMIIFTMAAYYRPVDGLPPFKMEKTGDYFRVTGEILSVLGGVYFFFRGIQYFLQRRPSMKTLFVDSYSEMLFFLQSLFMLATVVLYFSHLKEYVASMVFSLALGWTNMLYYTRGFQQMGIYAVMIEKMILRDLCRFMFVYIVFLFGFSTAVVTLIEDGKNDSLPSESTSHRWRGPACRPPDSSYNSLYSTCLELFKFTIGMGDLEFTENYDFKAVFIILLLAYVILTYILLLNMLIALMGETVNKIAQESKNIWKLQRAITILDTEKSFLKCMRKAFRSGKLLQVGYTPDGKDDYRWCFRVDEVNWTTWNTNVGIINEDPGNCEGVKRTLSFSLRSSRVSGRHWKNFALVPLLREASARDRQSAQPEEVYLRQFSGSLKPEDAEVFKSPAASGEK

SMILES | A2 VALUE
O=C(/C=C1\CCCOc2cc(C(F)(F)F)ccc21)Nc1ccc2c(c1)C(=O)N(CCO)C2 [Example 176, (E)-2-(8-trifluoromethyl-3,4-dihydrobenzo[b]oxepin-5(2H)-ylidene)-N-(2-hydroxyethyl-2,3-dihydro-isoindol-1-on-6-yl)acetamide] | B (compounds having an A2 value of 100 nM or more are represented by B)
CN1C(=O)CCc2ccc(NC(=O)/C=C3\CCCOc4cc(C(F)(F)F)ccc43)cc21 [Example 178, (E)-2-(8-trifluoromethyl-3,4-dihydrobenzo[b]oxepin-5(2H)-ylidene)-N-(1-methyl-2-oxo-1,2,3,4-tetrahydroquinolin-7-yl)acetamide] | A (compounds of the present invention having an A2 value of less than 100 nM are represented by A)
O=C(/C=C1\CCCOc2cc(C(F)(F)F)ccc21)Nc1ccc2c(c1)C(CO)CCC2 (stereo not shown) [Example 179, (E)-2-(8-trifluoromethyl-3,4-dihydrobenzo[b]oxepin-5(2H)-ylidene)-N-(8-hydroxymethyl-5,6,7,8-tetrahydronaphthalen-2-yl)acetamide] | A (compounds of the present invention having an A2 value of less than 100 nM are represented by A)
O=C(/C=C1\CCCOc2cc(C(F)(F)F)ccc21)Nc1cccc2c1CC(O)CO2 (stereo not shown) [Example 183, (E)-2-(8-trifluoromethyl-3,4-dihydrobenzo[b]oxepin-5(2H)-ylidene)-N-(3-hydroxy-chroman-5-yl)acetamide] | A (compounds of the present invention having an A2 value of less than 100 nM are represented by A)
CCC(F)(F)C(=O)N1CC/C(=C\C(=O)Nc2cccc3c2CC(O)CN3)c2ccc(C(F)(F)F)cc21 (stereo not shown) [Example 184, (E)-2-(1-(2,2-difluorobutanoyl)-7-trifluoromethyl-2,3-dihydroquinolin-4(1H)-ylidene)-N-(3-hydroxy-1,2,3,4-tetrahydroquinolin-5-yl)acetamide] | A (compounds of the present invention having an A2 value of less than 100 nM are represented by A)
CCC(F)(F)C(=O)N1CC/C(=C\C(=O)Nc2cccc3c2CC(O)C(=O)N3)c2ccc(C(F)(F)F)cc21 (stereo not shown) [Example 185, (E)-2-(1-(2,2-difluorobutanoyl)-7-trifluoromethyl-2,3-dihydroquinolin-4(1H)-ylidene)-N-(3-hydroxy-2-oxo-1,2,3,4-tetrahydroquinolin-5-yl)acetamide] | A (compounds of the present invention having an A2 value of less than 100 nM are represented by A)
CCCCC(=O)N1CCC/C(=C\C(=O)Nc2cccc3c2CC(O)CC3)c2ccc(C(F)(F)F)cc21 (stereo not shown) [Example 190, (E)-2-(8-trifluoromethyl-1-pentanoyl-1,2,3,4-tetrahydro-5H-benzo[b]azepin-5-ylidene)-N-(7-hydroxy-5,6,7,8-tetrahydronaphthalen-1-yl)acetamide] | A (compounds of the present invention having an A2 value of less than 100 nM are represented by A)
O=C(/C=C1\CCCNc2cc(C(F)(F)F)ccc21)Nc1ccc2cccnc2c1 [Example 191, (E)-2-(8-trifluoromethyl-1,2,3,4-tetrahydro-5H-benzo[b]azepin-5-ylidene)-N-(quinolin-7-yl)acetamide] | A (compounds of the present invention having an A2 value of less than 100 nM are represented by A)
CCCCC(=O)N1CCC/C(=C\C(=O)Nc2ccc3cccnc3c2)c2ccc(C(F)(F)F)cc21 [Example 192, (E)-2-(1-pentanoyl-8-trifluoromethyl-1,2,3,4-tetrahydro-5H-benzo[b]azepin-5-ylidene)-N-(quinolin-7-yl)acetamide] | A (compounds of the present invention having an A2 value of less than 100 nM are represented by A)
O=C(/C=C1\CCCN(C(=O)C2CCCC2)c2cc(C(F)(F)F)ccc21)Nc1ccc2cccnc2c1 [Example 193, (E)-2-(1-cyclopentanecarbonyl-8-trifluoromethyl-1,2,3,4-tetrahydro-5H-benzo[b]azepin-5-ylidene)-N-(quinolin-7-yl)acetamide] | A (compounds of the present invention having an A2 value of less than 100 nM are represented by A)
